Measured values published in patent publication US4760147A, “Optically active, substituted 1,4-dihydropyridines and their use as medicaments” (Cassella Aktiengesellschaft, priority 1984, dated 1988).

Each molecule was assayed on spiral strips of the arteria pulmonalis of guineapigs (assay: calcium-antagonistic action: relaxing effect on potassium-depolarised, CaCl2-contracted spiral strips of the arteria pulmonalis (modified method of Godfraind and Kaba and of Schumann et al)). Settings: depolarised with 40 mmol potassium; contraction triggered by 0.5 mmol CaCl2; mean value of 4 to 6 vascular strips; read-out: IC50 (concentration which inhibits the contraction by 50%).
Assay type: cell-based
Protocol: In these experiments, spiral strips of the arteria pulmonalis of guineapigs are depolarised with 40 mmol of potassium, after equilibration in calcium-freeTyrode's solution. The addition of 0.5 mmol of CaCl2 then triggers off contraction. The relaxing effect of the test substance is determined by cumulative addition in 1/2 log 10 graduated concentrations. The concentration of the test substance which inhibits the contraction by 50% (=IC50, mole/l) is determined from the concentration/effect curve (abscissa: -log mole/l of test substance, ordinate: % inhibition of the maximum contraction, mean value of 4 to 6 vascular strips).

In order of falling IC50:
1. COCCOC(=O)C1=C(C)NC(C)=C(c2nnco2)C1c1cccc(Cl)c1Cl (single isomer, unassigned) [Example 4, Methoxyethyl (-)-1,4-dihydro-2,6-dimethyl-3-(1,3,4-oxadiazol-2-yl)-4-(2,3-dichlorophenyl)-pyridine-5-carboxylate]  0.3 nM
2. COC(=O)C1=C(C)NC(C)=C(c2nnco2)C1c1cccc(Cl)c1Cl (single isomer, unassigned) [Example 2, Methyl (-)-1,4-dihydro-2,6-dimethyl-3-(1,3,4-oxadiazol-2-yl)-4-(2,3-dichlorophenyl)-pyridine-5-carboxylate]  0.2 nM
3. CC1=C(C(=O)OCCOC(C)C)C(c2cccc(Cl)c2Cl)C(c2nnco2)=C(C)N1 (single isomer, unassigned) [Example 16, 2-isopropoxy-ethyl (-)-1,4-dihydro-2,6-dimethyl-3-(1,3,4-oxadiazol-2-yl)-4-(2,3-dichlorophenyl)-pyridine-5-carboxylate]  0.1 nM
4. CCOC(=O)C1=C(C)NC(C)=C(c2nnco2)C1c1cccc(Cl)c1Cl (single isomer, unassigned) [Example 3, Ethyl (-)-1,4-dihydro-2,6-dimethyl-3-(1,3,4-oxadiazol-2-yl)-4-(2,3-dichlorophenyl)-pyridine-5-carboxylate]  0.07 nM
5. CC1=C(C(=O)OC(C)C)C(c2cccc(Cl)c2Cl)C(c2nnco2)=C(C)N1 (single isomer, unassigned) [Example 1e, Isopropyl (-)-1,4-dihydro-2,6-dimethyl-3-(1,3,4-oxadiazol-2-yl)-4-(2,3-dichlorophenyl)-pyridine-5-carboxylate]  0.04 nM
6. CCOC(=O)[C@@H](C)OC(=O)C1=C(C)NC(C)=C(c2nnco2)C1c1cccc(Cl)c1Cl (single isomer, unassigned) [Example 8c]  0.04 nM
